Square brackets hold non-standard residues; d marks the D form. Ends that are not written are not given here. Peptide text beside a SMILES is read from it. * marks the point of attachment. Phe(3,4-F2) = N[C@@H](Cc1ccc(F)c(F)c1)C(=O)O; Phe(4-Br) = N[C@@H](Cc1ccc(Br)cc1)C(=O)O; Phe(4-NH2) = Nc1ccc(C[C@H](N)C(=O)O)cc1; Dab = NCC[C@H](N)C(=O)O; Nle = CCCC[CH](N)C(=O)O; Abu = CC[C@H](N)C(=O)O; Dap = NC[C@H](N)C(=O)O; X1 = OB(O)C(CCCBr)N*; Ahx = NCCCCCC(=O)O

For one assay, the system named is LNCaP cells. The assay is described as follows: KLK activity and expression in LNCaP cells after AR signaling perturbation (streptavidin enrichment and immunoblotting). Type of assay: cell-based, human. As to conditions: 10 nM DHT ± 10 μM Enz, 48 h.
Assay [1] deals with KLK3. As to conditions: cited from earlier work.
The target in assay [2] is T1, KLK3 (Homo sapiens, UniProt P07288).
T1 construct: endogenous in cells; host or cells: LNCaP cells treated with 10 nM DHT; conditioned medium
The assay is described as follows: Competitive ABPP against 3 in LNCaP conditioned media, densitometry. Type of assay: biochemical. As to conditions: LNCaP CM, analogue 1 h then 20 μM 3 for 1 h; 16 analogues tested. On the procedure:
Despite exquisite selectivity, maximal KLK3 labeling was achieved only after treatment with 20 μM 3 for 1 h. We therefore optimized probe potency by systematically modifying each amino acid side chain in the P1–P4 positions of a morpholine-capped peptidyl-DPP inhibitor scaffold and determined the potency of each analogue using competitive-ABPP against 3.[25],[26] LNCaP CM was first incubated with a peptidyl-DPP analogue for 1 h, followed by 1 h treatment with 20 μM 3 to assess the degree of KLK3 inhibition by densitometry (Figures S4 and S5 for fluorescent gels and Figure S6 for structures of each morpholine-capped peptidyl-DPP analogue). […] Second generation biotinylated 20 and fluorescent 21 ABPs (Figures 2G and S7) based on this scaffold retained exquisite selectivity for KLK3 in LNCaP CM, but in contrast to first-generation ABP 3 achieved maximum labeling at only 1 μM and readily detectable labeling down to 130 nM (Figures 2H and S7).
Figure S4: Typical gel obtained from assessment of the potency of P1 (top) and P2 (bottom) morpholine-DPP analogues against KLK3 using competitive ABPP. […] Residual KLK3 activity was calculated using densitometry (ImageQuant) by comparing to a DMSO treated sample. […]

The next assay has as its target T2, KLK14 (Homo sapiens, UniProt Q9P0G3).
T2 construct: purchased R&D Systems
T2 sequence (Q9P0G3 25-251): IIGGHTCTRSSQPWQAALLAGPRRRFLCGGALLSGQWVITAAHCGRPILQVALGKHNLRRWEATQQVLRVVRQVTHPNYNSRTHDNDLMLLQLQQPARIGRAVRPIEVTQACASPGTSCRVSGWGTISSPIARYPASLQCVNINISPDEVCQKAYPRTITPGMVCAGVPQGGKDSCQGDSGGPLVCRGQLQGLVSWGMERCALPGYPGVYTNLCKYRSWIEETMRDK
The assay can be described thus: Determination of kinact/KI, fluorogenic substrate kinetic assay. Type of assay: biochemical. As to conditions: for kinact/KI / Kinact/KI KLK14: mean ± SEM (N = 3); for selectivity (fold-change): KLK14 over KLK2.

The next assay deals with T3, KLK2 (Homo sapiens, UniProt P20151).
T3 construct: purchased R&D Systems
Described as above. Type of assay: biochemical. As to conditions: for selectivity (fold-change): KLK2 over KLK14. The source says: 1.1 Chemicals and Reagents
All chemicals and reagents were purchased from commercial suppliers and used without further purification. Rink Amide resin (100-200 mesh) and 2-Chlorotrityl chloride resin (100-200 mesh, 1% DVB) were obtained from Merck. Natural Fmoc-amino acids were obtained from AGTC Bioproducts Ltd. Unnatural Fmoc-amino acids were obtained from Fluorochem, Alfa Aesar, VWR, Merck, Iris Biotech, Bachem or Sigma Aldrich. Culture media, fetal bovine serum, trypsin, antibiotics and chemicals required for differentiation of osteoprogenitor cells were obtained from Sigma Aldrich, Gibco or Invitrogen. Amicon 3 KDa Centrifugal filter units were obtained from Merck. Recombinant human KLK2 and KLK14 were obtained from R&D Systems and activated using the supplier’s protocol. All remaining chemical reagents were obtained from VWR, Sigma Aldrich or Merck. […]
Fluorescent plate-based enzymatic assays were carried out using an Envision 2104 Multilabel Plate Reader (PerkinElmer) operating in kinetic mode for a minimum of 20 min with excitation/emission […]
Specificity […]
was calculated by normalizing RFUs-1 to the highest value, which was set at 100 %.
Calculations were made in GraphPad Prism 5.
Determination of kcat/KM: The KLK2 substrate and KLK14 substrate were serially diluted in the appropriate KLK assay buffer and 25 μL was added to the wells of a 96-well plate. Next, 25 μL of KLK2 (1.5 nM) or KLK14 (75 pM) was added to each well containing the substrate and the enzyme-substrate reaction was monitored for at least 10 min. The linear portion of each progress curve was used to calculate relative fluorescence units per second (RFUs-1).
KM, kcat, and kcat/KM parameters were determined by nonlinear regression in GraphPad Prism 5 (GraphPad Software). Each experiment was repeated three times and the results are presented as an average ± SEM.
Determination of kinact/KI: Under pseudo-first order conditions, a fixed amount of KLK2 (1.5 nM) or KLK14 (37 pM) was incubated with peptidyl-DPP analogue at different concentrations in the presence of 5 µM of substrate. The pseudo first-order rate constant, kobs, was calculated for each probe concentration using non-linear regression analysis in GraphPad Prism 5. The obtained values were plotted against probe concentration to afford the apparent second order rate constant kinact(app)/KI. The absolute value of the second order rate constant was then obtained by adjusting for the substrate competition factor (1 + [S]/Km), where S is the concentration of substrate in the assay and KM is the Michaelis Menten constant for that substrate/enzyme reaction.
2.5 Cell Migration Assays
Cell migration: The assay was performed as per the manufacturer’s protocol (https://www.corning.com/catalog/cls/documents/protocols/an_Chemotaxis_protocol.pdf).
Briefly, LNCaP-WT, LNCaP-mK14 and LNCaP-K14 cells were grown to 80% confluency in RPMI media supplemented with 5 % FBS. The media was then aspirated, the cells were washed with 2 mL PBS (3*) and incubated with serum-free RPMI (without phenol red) supplemented with 10 nM DHT ± 100 ng/mL Dox for 24 h. Cells were trypsinized, washed twice with serum-free RPMI and resuspended in serum-free RPMI. 100,000 cells in 100 µL of serum-free RPMI was then added to the transwell inserts placed in a 24-well plate (Corning […]
Figure S15: KLK2 and KLK14 substrates. (A) Structures (B) Optimal assay conditions for […]
S19) inhibitors (C) Michaelis-Menten (K M) and rate (kcat) constants for KLK substrates

The mark [3] stands for this setting: KLK2 probe optimization series, mean ± SEM (N = 3).
[4] abbreviates: KLK14 probe optimization series.
[5] abbreviates: KLK14 probe optimization series, mean ± SEM (N = 3).

T3 sequence (P20151 25-261): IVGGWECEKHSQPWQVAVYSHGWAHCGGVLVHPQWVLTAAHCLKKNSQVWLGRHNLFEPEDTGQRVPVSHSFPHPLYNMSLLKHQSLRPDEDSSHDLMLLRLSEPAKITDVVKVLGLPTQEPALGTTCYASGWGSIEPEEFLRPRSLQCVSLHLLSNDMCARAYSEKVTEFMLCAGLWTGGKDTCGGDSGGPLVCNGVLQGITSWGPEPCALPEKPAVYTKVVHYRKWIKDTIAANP
T1 sequence (P07288 25-261): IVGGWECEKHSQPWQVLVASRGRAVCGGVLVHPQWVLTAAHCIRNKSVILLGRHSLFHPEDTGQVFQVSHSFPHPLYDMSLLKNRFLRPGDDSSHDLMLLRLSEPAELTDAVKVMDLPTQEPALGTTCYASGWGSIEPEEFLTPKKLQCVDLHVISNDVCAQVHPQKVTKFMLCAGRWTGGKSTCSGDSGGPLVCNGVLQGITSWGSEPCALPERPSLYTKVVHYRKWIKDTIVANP
Method for LNCaP cells: (B) KLK activity and expression in the LNCaP cell line after treatment with 10 nM DHT ± 10 μM Enz. KLK activity was assessed by streptavidin enrichment of probe-labeled KLK molecules following treatment of conditioned media with 1 μM of either 31, 20, or 39 for 1 h.
To enable detection of each KLK in WT LNCaP cells, we incubated LNCaP conditioned media with 1 μM of each KLK ABP, enriched labeled proteins on streptavidin beads, and visualized activity levels by immunoblotting with the appropriate KLK antibody (see Figure S19 for workflow).
Routine cell culture conditions: Wild-type LNCaP cells (passage <15) were grown in RPMI
Androgen-signaling Experiments: LNCaP cells grown to 80 % confluency in a T175 plate
were incubated with phenol red-free RPMI media supplemented with 5 % charcoal-stripped
FBS for 24 h. After 24 h, the media was aspirated, and the cells were incubated with serum-
free RPMI media (0 % FBS and phenol red-free) supplemented with the appropriate treatment
condition (10 nM DHT or 10 nM DHT + 10 μM Enzalutamide) for a further 48 h. After 48 h the
media was collected, passed through a 0.2 μm syringe filter and stored at – 80 °C until needed.

Turning to `C[C@]12CCC(=O)C[C@@H]1CC[C@@H]1[C@@H]2CC[C@]2(C)[C@@H](O)CC[C@@H]12` [DHT, dihydrotestosterone], in the assay on LNCaP cells, the “KLK14 expression and activity” value is on record as “decreased”; the “expression and activity of KLK2 and KLK3” value is listed as “upregulated”.
On to `O=C(NC(c1ccc(O)cc1)P(=O)(Oc1ccccc1)Oc1ccccc1)OCc1ccccc1` (stereo not shown) [compound 1], for which the “KLK3 inhibition (in words)” value in the assay with KLK3 [1] was “modestly potent inhibitor of KLK3”.
Regarding `CCCCC(NC(=O)C(CCC(N)=O)NC(=O)C(CO)NC(=O)C(Cc1ccccc1)NC(=O)CCCCCN)C(=O)NC(CCCBr)B(O)O` (stereo not shown) [compound 2] (H-[Ahx]FSQ[Nle]-X1; configuration not given here), the “KLK3 inhibition (in words)” value in the assay on KLK3 [1] was “potent and selective KLK3 inhibitor”.
Consider `CCC[C@H](NC(=O)[C@H](CCC(N)=O)NC(=O)[C@H](CC(N)=O)NC(=O)CN1CCOCC1)C(=O)NC(c1ccc(C(N)=O)cc1)P(=O)(Oc1ccccc1)Oc1ccccc1` (stereo partly shown) [compound 15], for which, at KLK3 [2], the “KLK3 inhibition by competitive ABPP” value was “potent KLK3 inhibitor”.
For `CCC(NC(=O)CCCCCNC(=O)CCCCC1SCC2NC(=O)NC21)C(=O)NC(CCN)C(=O)NC(CC1CCCCC1)C(=O)NC(c1ccc(NC(=N)N)cc1)P(=O)(Oc1ccccc1)Oc1ccccc1` (stereo not drawn) [compound 22, Abu-Dab-Cha-Arg], the results for the kinact/KI at KLK14 (KLK2 probe optimization series) and at KLK2 (setting [3]) were 511 ± 18 M⁻¹ s⁻¹ and 3270 ± 39 M⁻¹ s⁻¹, respectively. In addition, the “selectivity (fold-change)” value at KLK2 (KLK2 probe optimization series) came to 6 fold.
For `CC(OCc1ccccc1)C(NC(=O)CCCCCNC(=O)CCCCC1SCC2NC(=O)NC21)C(=O)NC(CCCCN)C(=O)NC(Cc1cn(Cc2ccccc2)cn1)C(=O)NC(c1ccc(NC(=N)N)cc1)P(=O)(Oc1ccccc1)Oc1ccccc1` (stereo not shown) [compound 32, Thr(Bz)-Lys-His(Bz)-Arg], the kinact/KI on KLK14 (setting [4]) is 523 ± 46 M⁻¹ s⁻¹.
For `CNC(=O)c1ccc(N2C(=S)N(c3ccc(C#N)c(C(F)(F)F)c3)C(=O)C2(C)C)cc1F` [enzalutamide], in the assay with LNCaP cells, the “KLK14 expression and activity” value is reported as “restored”; the “expression and activity of KLK2 and KLK3” value was “nullified”.
Abu-Dab-4 Pal-Arg [compound 24]: the “Kinact/KI KLK14” value on KLK14 (KLK2 probe optimization series) is 390 ± 15 M^–1 s^–1. Besides, at KLK2 (KLK2 probe optimization series), the “selectivity (fold-change)” value was 7 fold. In addition, the “Kinact/KI KLK2” value on KLK2 (setting [3]) is recorded as 2586 ± 54 M^–1 s^–1.
Turning to Abu-Dab-Phe(3-CI)-Arg [compound 25], the “Kinact/KI KLK14” value at KLK14 (KLK2 probe optimization series) is listed as 443 ± 16 M^–1 s^–1. In addition, on KLK2 (KLK2 probe optimization series), the “selectivity (fold-change)” value is 8 fold. The “Kinact/KI KLK2” value on KLK2 (setting [3]) amounted to 3615 ± 107 M^–1 s^–1.
Consider Abu-Lys(TFA)-Tyr-Arg [compound 29], for which the “Kinact/KI KLK2” value on KLK2 (setting [3]) was 128 ± 19 M^–1 s^–1.
With Thr(Bz)-Dab-Abu-Arg [compound 36], at KLK14 (setting [4]), the “selectivity (fold-change)” value is 11 fold and the “Kinact/KI KLK14” value is given as 18274 ± 680 M^–1 s^–1. Besides, on KLK2 (setting [5]), the “Kinact/KI KLK2” value was determined as 1668 ± 60 M^–1 s^–1.
The matching figures for Thr(Bz)-Dap-Abu-Arg [compound 37]: 11 fold, 12636 ± 496 M^–1 s^–1 and 1162 ± 40 M^–1 s^–1.
The matching figures for Thr(Bz)-Lys-Abu-Arg [compound 35]: 25 fold, 5903 ± 254 M^–1 s^–1 and 231 ± 9 M^–1 s^–1.
As to Thr(Bz)-Lys-Hse(Bz)Arg [compound 33], the “Kinact/KI KLK14” value on KLK14 (setting [4]) was determined as 1121 ± 54 M^–1 s^–1.
For “Thr(Bz)-Lys-Phe(3,4-F2)-Arg [compound 34]”, at KLK14 (setting [4]), the “Kinact/KI KLK14” value was 602 ± 33 M^–1 s^–1.
Regarding Tyr(Bz)-Dab-Abu-Arg [compound 41], on KLK14 (setting [4]), the “selectivity (fold-change)” value amounted to 91 fold and the “Kinact/KI KLK14” value came to 8894 ± 132 M^–1 s^–1. On KLK2 (setting [5]), the “Kinact/KI KLK2” value stood at 98 ± 4 M^–1 s^–1.
As for [Abu][Dab]WR [compound 27], the “Kinact/KI KLK14” value on KLK14 (KLK2 probe optimization series) was 270 ± 5 M^–1 s^–1. The “selectivity (fold-change)” value on KLK2 (KLK2 probe optimization series) is listed as 9 fold. Besides, the “Kinact/KI KLK2” value at KLK2 (setting [3]) is 2374 ± 37 M^–1 s^–1.
The matching figures for [Abu][Dab]YR [compound 26]: 552 ± 11 M^–1 s^–1, 14 fold and 7881 ± 249 M^–1 s^–1.
As for [Abu][Dab][Phe(3,4-F2)]R [compound 28], the “Kinact/KI KLK14” value at KLK14 (KLK2 probe optimization series) is reported as 2526 ± 173 M^–1 s^–1. In addition, at KLK2 (KLK2 probe optimization series), the “selectivity (fold-change)” value stood at 2 fold. Moreover, the “Kinact/KI KLK2” value on KLK2 (setting [3]) came out at 5653 ± 265 M^–1 s^–1.
The matching figures for [Abu][Dab][Phe(4-NH2)]R [compound 23]: 432 ± 15 M^–1 s^–1, 4 fold and 1659 ± 35 M^–1 s^–1.
Take [Dap][Dab]YR [compound 30]: the “Kinact/KI KLK14” value at KLK14 (KLK2 probe optimization series) was found to be 134 ± 6 M^–1 s^–1. The “Kinact/KI KLK2” value on KLK2 (setting [3]) stood at 1849 ± 53 M^–1 s^–1.
Take [Phe(4-Br)][Dab][Abu]R [compound 40]: at KLK14 (setting [4]), the “selectivity (fold-change)” value is 57 fold and the “Kinact/KI KLK14” value came out at 20215 ± 570 M^–1 s^–1. Moreover, the “Kinact/KI KLK2” value on KLK2 (setting [5]) is reported as 350 ± 9 M^–1 s^–1.

Source of the values: paper PMC9282638, “A Suite of Activity-Based Probes To Dissect the KLK Activome in Drug-Resistant Prostate Cancer” (Journal of the American Chemical Society, 2021).
